Data as given in patent US20230167088A1, “1-PYRAZINYLPYRAZOLYL-3-OXYALKYL ACIDS AND THEIR DERIVATIVES, AND THEIR USE FOR CONTROL OF UNDESIRED PLANT GROWTH” (BAYER AKTIENGESELLSCHAFT, priority 2020, published 2023).

Experiments:
VERPE [1] = assay: Herbicidal pre-emergence action 2a (greenhouse pots, visual scoring); type: in vivo, Veronica persica; conditions: dosage 320 g/ha, visual scoring after about 3 weeks vs untreated controls
Description: (§1) [table] a) Seeds of monocotyledonous and dicotyledonous weed plants and crop plants are placed in plastic or organic plant pots and covered with soil. The compounds of the invention, formulated in the form of wettable powders (WP) or as emulsion concentrates (EC), are then applied onto the surface of the covering soil as aqueous suspension or emulsion with addition of 0.5% additive at a water application rate of 600 1/ha (converted). After the treatment, the pots are placed in a greenhouse and kept under good growth conditions for the trial plants. After about 3 weeks, the effect of the preparations is scored visually in comparison with untreated controls as percentages. For example, 100% activity=the plants have died, 0% activity=like control plants. Tables B1 to B15 below show the effects of selected compounds of the general formula (I) according to Tables 1 and 2 on various harmful plants and an application rate corresponding to 320 g/ha and/or 80 g/ha, which were obtained by the experimental procedure mentioned above.

SETVI [2] = assay: as above; type: in vivo, Setaria viridis; conditions: dosage 320 g/ha, visual scoring after about 3 weeks vs untreated controls
Description: as §1

AMARE [3] = assay: as above; type: in vivo, Amaranthus retroflexus; conditions: dosage 320 g/ha, visual scoring after about 3 weeks vs untreated controls
Description: as §1

AMARE [4] = assay: Herbicidal post-emergence action 1a (greenhouse pots, visual rating); type: in vivo, Amaranthus retroflexus; conditions: visual rating about 3 weeks after treatment
Method: (§2) [table] a) Seeds of monocotyledonous and dicotyledonous weeds and crop plants are placed in sandy loam in plastic or organic plant pots, covered with soil and cultivated in a greenhouse under controlled growth conditions. 2 to 3 weeks after sowing, the test plants are treated at the one-leaf stage. The compounds of the invention, formulated in the form of wettable powders (WP) or as emulsion concentrates (EC), are then sprayed onto the green parts of the plants as aqueous suspension or emulsion with addition of 0.5% additive at a water application rate of 600 1/ha (converted). After the test plants have been kept in the greenhouse under optimum growth conditions for about 3 weeks, the activity of the preparations is rated visually in comparison to untreated controls. For example, 100% activity=the plants have died, 0% activity=like control plants. Tables A1 to A15 below show the effects of selected compounds of the general formula (I) according to Tables 1 and 2 on various harmful plants and an application rate corresponding to 320 g/ha and/or 80 g/ha, which were obtained by the experimental procedure mentioned above.

VERPE [5] = assay: as above; type: in vivo, Veronica persica; conditions: visual rating about 3 weeks after treatment
Method: as §2

SETVI [6] = assay: as above; type: in vivo, Setaria viridis; conditions: rated visually about 3 weeks after treatment, 100% = plants have died, 0% = like control plants
Method: as §2

POLCO [7] = assay: as above; type: in vivo, Polygonum convolvulus; conditions: visual rating about 3 weeks after treatment
Method: as §2

POAAN [8] = assay: Herbicidal post-emergence action 1b (twin sowing, 1280 g/ha); type: in vivo, Poa annua; conditions: dosage 1280 g/ha, visual rating about 3 weeks after treatment
Method: [table] b) Seeds of mono- and dicotyledonous weed plants are placed in plastic pots in sandy loam soil (twin sowing with one species each of mono- or dicotyledonous weed plants per pot), covered with soil and cultivated in a greenhouse under controlled growth conditions. 2 to 3 weeks after sowing, the test plants are treated at the one-leaf stage. The compounds of the invention, formulated in the form of wettable powders (WP) or as emulsion concentrates (EC), are applied to the green parts of the plants as aqueous suspension or emulsion with addition of 0.5% additive at a water application rate equivalent to 600 litres per hectare. After the test plants have been kept in the greenhouse under optimum growth conditions for about 3 weeks, the activity of the preparations is rated visually in comparison to untreated controls. For example, 100% activity=the plants have died, 0% activity=like control plants. Tables A16 to A21 below show the effects of selected compounds of the general formula (I) according to Tables 1 and 2 on various harmful plants and at an application rate corresponding to 1280 g/ha, which were obtained by the experimental procedure mentioned above.

POAAN [9] = assay: Herbicidal pre-emergence action 2b (doubly sown, 1280 g/ha); type: in vivo, Poa annua; conditions: doubly sown pots, dosage 1280 g/ha, visual scoring after about 3 weeks
Description: (§3) [table] b) Seeds of mono- and dicotyledonous weed plants are placed in plastic pots in sandy loam soil (doubly sown with one species each of mono- or dicotyledonous weed plants per pot) and covered with soil. The compounds of the invention, formulated in the form of wettable powders (WP) or as emulsion concentrates (EC), are then applied onto the surface of the covering soil as aqueous suspension or emulsion with addition of 0.5% additive at a water application rate equivalent to 600 litres per hectare. After the treatment, the pots are placed in a greenhouse and kept under good growth conditions for the trial plants. After about 3 weeks, the effect of the preparations is scored visually in comparison with untreated controls as percentages. For example, 100% activity=the plants have died, 0% activity=like control plants. Tables B16 to B21 below show the effects of selected compounds of the general formula (I) according to Tables 1 and 2 on various harmful plants and at an application rate corresponding to 1280 g/ha, which were obtained by the experimental procedure mentioned above.

STEME = assay: as above; type: in vivo, Stellaria media; conditions: doubly sown pots, dosage 1280 g/ha, visual scoring after about 3 weeks
Description: as §3

AMARE [10] = assay: as above; type: in vivo, Amaranthus retroflexus; conditions: doubly sown pots, dosage 1280 g/ha, visual scoring after about 3 weeks
Description: as §3

ECHCG = assay: as above; type: in vivo, Echinochloa crus-galli; conditions: doubly sown pots, dosage 1280 g/ha, visual scoring after about 3 weeks
Description: as §3

AVEFA [11] = assay: Herbicidal pre-emergence action 2a (greenhouse pots, visual scoring); type: in vivo, Avena fatua; conditions: dosage 320 g/ha, visual scoring after about 3 weeks
Description: as §1

ALOMY [12] = assay: as above; type: in vivo, Alopecurus myosuroides; conditions: dosage 320 g/ha, visual scoring after about 3 weeks
Description: as §1

AVEFA [13] = assay: Herbicidal post-emergence action 1a (greenhouse pots, visual rating); type: in vivo, Avena fatua; conditions: Dosage 80 g/ha; rated visually about 3 weeks after treatment; 100% = plants have died, 0% = like control plants
Method: as §2

LOLRI = assay: Herbicidal pre-emergence action 2a (greenhouse pots, visual scoring); type: in vivo, Lolium rigidum; conditions: dosage 320 g/ha, visual scoring after about 3 weeks vs untreated controls
Description: as §1

ALOMY [14] = assay: Herbicidal post-emergence action 1a (greenhouse pots, visual rating); type: in vivo, Alopecurus myosuroides; conditions: Dosage 80 g/ha; rated visually about 3 weeks after treatment; 100% = plants have died, 0% = like control plants
Method: as §2

ABUTH = assay: as above; type: in vivo, Abutilon theophrasti; conditions: dosage 80 g/ha, visual rating about 3 weeks after treatment
Method: as §2

MATIN = assay: Herbicidal pre-emergence action 2b (doubly sown, 1280 g/ha); type: in vivo, Matricaria inodora; conditions: doubly sown pots, dosage 1280 g/ha, visual scoring after about 3 weeks
Description: as §3

VIOTR = assay: Herbicidal post-emergence action 1a (greenhouse pots, visual rating); type: in vivo, Viola tricolor; conditions: dosage 320 g/ha, visual rating about 3 weeks after treatment
Method: as §2

PHBPU = assay: as above; type: in vivo, Pharbitis purpurea; conditions: dosage 80 g/ha, visual rating about 3 weeks after treatment
Method: as §2

POLCO [15] = assay: Herbicidal pre-emergence action 2a (greenhouse pots, visual scoring); type: in vivo, Polygonum convolvulus; conditions: dosage 320 g/ha, visual scoring after about 3 weeks vs untreated controls
Description: as §1

COC(=O)[C@@H](C)Oc1nn(-c2cnccn2)c(-c2ccnnc2)c1C#N [Example I-32]
Pre-emergence action against VERPE in % (VERPE [1]): 90%

CN(C)S(=O)(=O)NC(=O)COc1nn(-c2cnccn2)c(-c2ccc(F)nc2)c1Br [II-12]
Pre-emergence action against SETVI in % (SETVI [2]): 100% | Pre-emergence action against AMARE in % (AMARE [3]): 80%

CC(C)N(C)S(=O)(=O)NC(=O)COc1nn(-c2cnccn2)c(-c2ccc(F)nc2)c1Br [II-13]
Pre-emergence action against AMARE in % (AMARE [3]): 90% | Post-emergence action against AMARE in % (AMARE [4]; dosage 80 g/ha): 80%

COC(=O)C(C)Oc1nn(-c2nccnc2F)c(-c2ccc(F)nc2)c1Br (racemic) [Example I-78]
Pre-emergence action against SETVI in % (SETVI [2]): 90% | Post-emergence action against VERPE in % (VERPE [5]; dosage 320 g/ha): 80% | Pre-emergence action against AMARE in % (AMARE [3]): 80% | Post-emergence action against SETVI in % (SETVI [6]; Dosage 80 g/ha): 80% | Post-emergence action against SETVI in % (SETVI [6]; Dosage 320 g/ha): 100%

COC(=O)COc1nn(-c2cnccn2)c(-c2ccc(F)nc2)c1C1CC1 [Example I-84]
Post-emergence action against VERPE in % (VERPE [5]; dosage 320 g/ha): 80% | Pre-emergence action against AMARE in % (AMARE [3]): 90% | Post-emergence action against POLCO in % (POLCO [7]; dosage 320 g/ha): 80% | Post-emergence action against AMARE in % (AMARE [4]; dosage 80 g/ha): 90% | Post-emergence action against AMARE in % (AMARE [4]; dosage 320 g/ha): 90%

COC(=O)C(C)Oc1nn(-c2cnccn2)c(-c2ccccc2)c1Br (racemic) [Example I-19]
Post-emergence action at 1280 g/ha against POAAN in % (POAAN [8]): 100% | Pre-emergence action at 1280 g/ha against POAAN in % (POAAN [9]): 100% | Pre-emergence action at 1280 g/ha against STEME in % (STEME): 100% | Pre-emergence action at 1280 g/ha against AMARE in % (AMARE [10]): 100%

COC(=O)CNC(=O)COc1nn(-c2cnccn2)c(-c2ccc(F)nc2)c1Br [II-08]
Pre-emergence action against AMARE in % (AMARE [3]): 90% | Post-emergence action against AMARE in % (AMARE [4]; dosage 80 g/ha): 80%

CS(=O)(=O)NC(=O)COc1nn(-c2cnccn2)c(-c2ccc(F)nc2)c1Br [II-14]
Pre-emergence action against AMARE in % (AMARE [3]): 80%

COC(=O)COc1nn(-c2cnccn2)c(-c2ccc(F)c(F)c2)c1C#N [Example I-23]
Pre-emergence action at 1280 g/ha against AMARE in % (AMARE [10]): 100% | Pre-emergence action at 1280 g/ha against ECHCG in % (ECHCG): 100%

C[C@@H](Oc1nn(-c2cnccn2)c(-c2ccc(F)nc2)c1Br)C(=O)NCC1CC1 [II-06]
Pre-emergence action against VERPE in % (VERPE [1]): 100%

COC(=O)[C@@H](C)Oc1nn(-c2cnccn2)c(-c2ccc(F)nc2)c1C1CC1 [Example I-87]
Pre-emergence action against VERPE in % (VERPE [1]): 80% | Pre-emergence action against AVEFA in % (AVEFA [11]): 90% | Pre-emergence action against ALOMY in % (ALOMY [12]): 100% | Pre-emergence action against SETVI in % (SETVI [2]): 100% | Post-emergence action against AVEFA in % (AVEFA [13]): 90% | Pre-emergence action against LOLRI in % (LOLRI): 100% | Post-emergence action against ALOMY in % (ALOMY [14]): 100% | Post-emergence action against AMARE in % (AMARE [4]; dosage 80 g/ha): 80%

CCOC(=O)CCNC(=O)COc1nn(-c2cnccn2)c(-c2ccc(F)nc2)c1Br [II-09]
Post-emergence action against VERPE in % (VERPE [5]; dosage 80 g/ha): 90% | Post-emergence action against POLCO in % (POLCO [7]; dosage 80 g/ha): 80% | Post-emergence action against ABUTH in % (ABUTH): 90% | Post-emergence action against AMARE in % (AMARE [4]; dosage 80 g/ha): 90%

COC(=O)[C@@H](C)Oc1nn(-c2nccnc2F)c(-c2ccc(F)nc2)c1Br [Example I-80]
Pre-emergence action against VERPE in % (VERPE [1]): 80% | Pre-emergence action against ALOMY in % (ALOMY [12]): 100% | Pre-emergence action against AMARE in % (AMARE [3]): 100% | Post-emergence action against POLCO in % (POLCO [7]; dosage 320 g/ha): 80% | Pre-emergence action against LOLRI in % (LOLRI): 80% | Post-emergence action against AMARE in % (AMARE [4]; dosage 80 g/ha): 80% | Post-emergence action against AMARE in % (AMARE [4]; dosage 320 g/ha): 80%

C=CCNC(=O)COc1nn(-c2cnccn2)c(-c2cccc(F)c2)c1Br [II-01]
Pre-emergence action at 1280 g/ha against POAAN in % (POAAN [9]): 100% | Pre-emergence action at 1280 g/ha against STEME in % (STEME): 100% | Pre-emergence action at 1280 g/ha against MATIN in % (MATIN): 100% | Pre-emergence action at 1280 g/ha against AMARE in % (AMARE [10]): 100% | Pre-emergence action at 1280 g/ha against ECHCG in % (ECHCG): 90%

COC(=O)[C@@H](C)Oc1nn(-c2cnccn2)c(-c2cccc(F)c2)c1Br [Example 1-20]
Post-emergence action against VIOTR in % (VIOTR): 90% | Pre-emergence action against LOLRI in % (LOLRI): 100%

O=C(COc1nn(-c2cnccn2)c(-c2ccc(F)nc2)c1Br)NCC1CC1 [II-10]
Post-emergence action against PHBPU in % (PHBPU): 80% | Post-emergence action against AMARE in % (AMARE [4]; dosage 80 g/ha): 80%

CC(Oc1nn(-c2cnccn2)c(-c2ccc(F)nc2)c1C1CC1)C(=O)O (stereo not drawn) [Example I-86]
Pre-emergence action against ALOMY in % (ALOMY [12]): 100% | Post-emergence action against AVEFA in % (AVEFA [13]): 90% | Pre-emergence action against AMARE in % (AMARE [3]): 80% | Pre-emergence action against LOLRI in % (LOLRI): 100% | Post-emergence action against ALOMY in % (ALOMY [14]): 90% | Pre-emergence action against POLCO in % (POLCO [15]): 80%

COC(=O)CCNC(=O)[C@@H](C)Oc1nn(-c2cnccn2)c(-c2ccc(F)nc2)c1Br [II-02]
Pre-emergence action against ALOMY in % (ALOMY [12]): 80%
